Experimental findings from patent publication EP4721737A1, “USE OF PHARMACEUTICAL COMPOSITION COMPRISING COMPOUND HAVING BIS(AZANYLYLIDENE) SULFONYL STRUCTURE FOR TREATING ANEMIA-RELATED DISEASES” (Scinnohub Pharmaceutical Co., Ltd., priority 2023, dated 2024) are described below.

The target in the test is T1, PKR in ex vivo red blood cells from healthy individuals (Homo sapiens, UniProt P30613).
T1 construct: endogenous in cells; host or cells: human red blood cells isolated from fresh peripheral blood of healthy individuals
T1 sequence (P30613 whole entry): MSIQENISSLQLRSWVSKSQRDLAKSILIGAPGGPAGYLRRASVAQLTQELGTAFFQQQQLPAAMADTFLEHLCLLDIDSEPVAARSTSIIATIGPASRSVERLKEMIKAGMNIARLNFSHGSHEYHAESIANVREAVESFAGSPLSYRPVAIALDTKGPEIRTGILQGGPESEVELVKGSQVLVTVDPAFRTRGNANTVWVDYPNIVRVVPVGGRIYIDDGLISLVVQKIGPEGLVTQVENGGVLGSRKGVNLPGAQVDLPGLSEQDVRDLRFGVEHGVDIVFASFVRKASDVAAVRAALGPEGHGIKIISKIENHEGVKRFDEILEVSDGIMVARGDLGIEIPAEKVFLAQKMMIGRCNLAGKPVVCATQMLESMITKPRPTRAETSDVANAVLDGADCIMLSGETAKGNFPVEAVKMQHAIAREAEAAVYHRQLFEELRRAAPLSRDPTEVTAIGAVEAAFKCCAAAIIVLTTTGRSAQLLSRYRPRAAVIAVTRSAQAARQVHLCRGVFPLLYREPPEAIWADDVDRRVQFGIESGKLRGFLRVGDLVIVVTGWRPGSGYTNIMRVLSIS
Nature of the test: ex vivo pyruvate kinase (PKR) activity experiment, red blood cells of healthy individuals. Type of test: cell-based. As to conditions: 3 hours co-cultivation. As to the method: To test the effects of the compound of the present disclosure on PKR activation in ex vivo red blood cells from healthy individuals and patients with thalassemia.
• i. 5 g of glucose, 85 mg of adenine, and 2.625 g of mannitol were weighed and added into a 50 mL centrifuge tube. 40 mL of PBS was added to dissolve (sonicate for 30 minutes until completely dissolved). The solution was filtered through a 0.22 µm filter, then added to 460 mL of sterile PBS and mixed thoroughly.
• i. Fresh human peripheral blood was collected. K2EDTA was used as the anticoagulant. 1 part anticoagulant with 9 parts blood was mixed, then centrifuged at 500 g for 10 minutes at room temperature to remove the plasma. • ii. Packed red blood cells: 1.5 volumes of PBS were added, then centrifuged at 2000 ×g for 5 minutes at room temperature. After centrifugation, the supernatant was removed. This step was repeated twice. • iii. Diluted red blood cells: 1.5 volumes of PBS were added, then resuspended and mixed thoroughly. • iv. The diluted red blood cells were slowly added to 0.5 volume of 70% isotonic solution (e.g., 7.5 mL of diluted red blood cells + 3 mL of 70% isotonic solution Percoll) and centrifuged at 4000 ×g for 20 minutes at 4°C. • v. The supernatant was removed. The red blood cells at the bottom were washed once with 4-5 mL of PBS to elute the Percoll gel, and then centrifuged at 2000 ×g for 5 minutes at room temperature. • vi. The supernatant was removed. The red blood cells were counted and then diluted in AGAM medium containing 10% FBS to a density of 2 × 10^8 cells/mL for storage at 4°C.
i. The red blood cells were seeded into a 96-well plate at a uniform density of 1 × 10^7 cells/mL, with 100 µL per well. The test compounds (dissolved in DMSO) were diluted and added to the cell culture medium, resulting in final compound concentrations of 3000, 1000, 300, 100, 10, 3, and 1 nM (with 1% DMSO). The cells and compounds were co-cultivated for 3 hours in a 37°C incubator with 5% CO2. Subsequently, the plate was centrifuged at 2000 g for 20 minutes, and the supernatant was discarded. 100 µL of red blood cell lysis buffer was added to the cell pellet, vortexed for 20 minutes, and centrifuged at 4000 g for 5 minutes. The supernatant was collected for analysis. ii. The reaction system was prepared according to the kit instructions (shown as the table below), 10 µL of the reaction system was added to each well of a 384-well plate, and 10 µL of red blood cell lysis buffer was took and mixed well (20 µL reaction system).
iii. A black, transparent-bottomed 384-well plate was placed in a microplate reader to measure fluorescence at 540/590 nm. The fluorescence was read every 2 minutes for 1 hour.
i. The Slope value was calculated over the assay time. Compound activation percentage was calculated using the 1% DMSO well as the control well. Activation percentage = (Slope of compound well / Slope of control well) × 100% ii. Dose-response curve was fit using the logarithmic compound concentration on the X-axis and the percent activation percentage on the Y-axis, the log(agonist) vs. response - variable slope function in GraphPad Prism 5 was used to determine the AC50 value for each compound on PKR activity. Y = min + (max−min)/(1+10^(∧)((LogAC50−X)×Hillslope)). [formula] The PKR agonist effects of the compound of the present disclosure on ex vivo red blood cells from healthy individuals and thalassemia patients were determined using the above assay. The AC50 values measured on ex vivo red blood cells from healthy individuals are as follows (A represents 0-100 nM, B represents 101-300 nM, and C represents 300-1000 nM): […]
One may read the AC50 as the concentration giving half of the maximal activity seen. Regarding `NC(C(=O)N1CC(=C2CN(S(=O)(=O)c3ccc(OC(F)F)cc3)C2)C1)c1ccc(F)cc1` (stereo not drawn) [Compound 22, 2-amino-1-(1'-((4-(difluoromethoxy)phenyl)sulfonyl)-1',4'-dihydro-2H,2'H-[3,3'-diazetidinylidene]-1 (4H)-yl)-2-(4-fluorophenyl)ethan-1-one], the AC50 is < 100 nM. For `O=C([C@H](CO)c1ccc(F)cc1)N1CC(=C2CN(S(=O)(=O)c3ccc4ncsc4c3)C2)C1` [Compound 25, (S)-1-(1'-(benzo[d]thiazol-6-ylsulfonyl)-1',4'-dihydro-2H,2'H-[3,3'-diazetidinylidene]-1(4H)-yl)-2-(4-fluorophenyl)-3-hydroxypropan-1-one], the AC50 was 300 to 1000 nM.

Turning to `O=C(C(CO)c1ccc(F)cc1)N1CC(=C2CN(S(=O)(=O)c3ccc4c(c3)OC(F)(F)O4)C2)C1` (stereo not drawn) [Compound 36, 1-(1'-((2,2-difluorobenzo[d][1,3]dioxolan-5-yl)sulfonyl)-1',4'-dihydro-2H,2'H-[3,3'-diazetidinylidene]-1(4H)-yl)-2-(4-fluorophenyl)-3-hydroxypropan-1-one], the half-maximal activity concentration (AC50) was < 100 nM.

Take `O=C(N1CC(=C2CN(S(=O)(=O)c3ccc(OC(F)F)cc3)C2)C1)C1(c2ccccc2)CCOC1` (stereo not drawn) [Compound 37, (1'-((4-(difluoromethoxy)phenyl)sulfonyl)-1',4'-dihydro-2H,2'H-[3,3'-diazetidinylidene]-1(4H)-yl)(3-phenyltetrahydrofuran-3-yl)methanone]: the AC50 was in the range of 300 to 1000 nM.

The compound `O=C1COc2ccc(S(=O)(=O)N3CC(=C4CN(C(=O)[C@H](CO)c5ccccc5)C4)C3)cc2N1` [Compound 40, (S)-6-((1'-(3-hydroxy-2-phenylpropionyl)-1',4'-dihydro-2H,2'H-[3,3'-diazetidinylidene]-1(4H)-yl)sulfonyl)-2H-benzo[b][1,4]oxazine-3(4H)-one] returned an AC50 of 300 to 1000 nM.

With `CN1C(=O)COc2ccc(S(=O)(=O)N3CC(=C4CN(C(=O)[C@H](CO)c5ccccc5)C4)C3)cc21` [Compound 41, (S)-6-((1'-(3-hydroxy-2-phenylpropionyl)-1',4'-dihydro-2H,2'H-[3,3'-diazetidinylidene]-1(4H)-yl)sulfonyl)-4-methyl-2H-benzo[b][1,4]oxazine-3(4H)-one], the AC50 is < 100 nM. As for `CN1CCN(c2cccc(C(O)C(=O)N3CC(=C4CN(S(=O)(=O)c5ccc6ncsc6c5)C4)C3)c2)CC1` (stereo not drawn) [Compound 43, 1-(1'-(benzo[d]thiazol-6-ylsulfonyl)-1',4'-dihydro-2H,2'H-[3,3'-diazetidinylidene]-1(4H)-yl)-2-hydroxy-2-(3-(4-methylpiperazin-1-yl)phenyl)ethan-1-one], the figure is 101 to 300 nM; as for `O=C(C(CO)c1cccnc1)N1CC(=C2CN(S(=O)(=O)c3ccc4ncsc4c3)C2)C1` (stereo not drawn) [Compound 48, 1-(1'-(benzo[d]thiazol-6-ylsulfonyl)-1',4'-dihydro-2H,2'H-[3,3'-diazetidinylidene]-1(4H)-yl)-3-hydroxy-2-(pyridin-3-yl)propan-1-one], 300 to 1000 nM. Take `O=C(C(CO)c1ccc(F)c(Cl)c1)N1CC(=C2CN(S(=O)(=O)c3ccccn3)C2)C1` (stereo not drawn) [Compound 59, 2-(3-chloro-4-fluorophenyl)-3-hydroxy-1-(1'-(pyridin-2-ylsulfonyl)-1',4'-dihydro-2H,2'H-[3,3'-diazetidinylidene]-1(4H)-yl)propan-1-one]: the AC50 is < 100 nM. As for `O=C(C(CO)c1ccc(F)c(F)c1)N1CC(=C2CN(S(=O)(=O)c3ccccn3)C2)C1` (stereo not drawn) [Compound 61, 2-(3,4-difluorophenyl)-3-hydroxy-1-(1'-(pyridin-2-ylsulfonyl)-1',4'-dihydro-2H,2'H-[3,3'-diazetidinylidene]-1(4H)-yl)propan-1-one], the figure is 101 to 300 nM; as for `Cn1cnc2ccc(S(=O)(=O)N3CC(=C4CN(C(=O)[C@H](CO)c5ccccc5)C4)C3)cc21` [Compound 63, (S)-3-hydroxy-1-(1'-((1-methyl-1H-benzimidazol-6-yl)sulfonyl)-1',4'-dihydro-2H,2'H-[3,3'-diazetidinylidene]-1(4H)-yl)-2-phenylpropan-1-one], 300 to 1000 nM. For `O=C([C@H](CO)c1ccccc1)N1CC(=C2CN(S(=O)(=O)c3ccc(Cl)cn3)C2)C1` [Compound 66], the AC50 is < 100 nM.

Regarding `O=C([C@H](CO)c1ccccc1)N1CC(=C2CN(S(=O)(=O)c3cccnc3)C2)C1` [Compound 68, (S)-3-hydroxy-2-phenyl-1-(1'-(pyridin-3-ylsulfonyl)-1',4'-dihydro-2H,2'H-[3,3'-diazetidinylidene]-1(4H)-yl)propane-1-one], the AC50 was 101 to 300 nM. Take `N#Cc1ccc(S(=O)(=O)N2CC(=C3CN(C(=O)[C@H](CO)c4ccccc4)C3)C2)nc1` [Compound 70, (S)-6-((1'-(3-hydroxy-2-phenylpropionyl)-1',4'-dihydro-2H,2'H-[3,3'-diazetidinylidene]-1(4H)-yl)sulfonyl)nicotinonitrile]: the AC50 is 101 to 300 nM. As for `O=C(C(CO)c1ccc(C(F)F)cc1)N1CC(=C2CN(S(=O)(=O)c3ccccn3)C2)C1` (stereo not drawn) [Compound 71, 2-(4-(difluoromethyl)phenyl)-3-hydroxy-1-(1'-(pyridin-2-ylsulfonyl)-1',4'-dihydro-2H,2'H-[3,3'-diazetidinylidene]-1(4H)-y 1)propan-1-one], the figure is 101 to 300 nM. Next, `CC(C)Oc1ccc(S(=O)(=O)N2CC(=C3CN(C(=O)[C@H](CO)c4ccccc4)C3)C2)nc1` [Compound 81, (S)-3-hydroxy-1-(1'-((5-isopropoxypyridin-2-yl)sulfonyl)-1',4'-dihydro-2H,2'H-[3,3'-diazetidinylidene]-1(4H)-yl)-2-phenylpropan-1-one]: 300 to 1000 nM. As for `O=C([C@H](CO)c1ccccc1)N1CC(=C2CN(S(=O)(=O)c3ccc(OC4CC4)cn3)C2)C1` [Compound 82, (S)-1-(1'-((5-cyclopropoxypyridin-2-yl)sulfonyl)-1',4'-dihydro-2H,2'H-[3,3'-diazetidinylidene]-1(4H) -yl)-3-hydroxy-2-phenylpropan-1-one], the figure is 101 to 300 nM; as for `O=C(C(CO)C1CCCCC1)N1CC(=C2CN(S(=O)(=O)c3ccccn3)C2)C1` (stereo not drawn) [Compound 90, 2-cyclohexyl-3-hydroxy-1-(1'-(pyridin-2-ylsulfonyl)-1',4'-dihydro-2H,2'H-[3,3'-diazetidinylidene]-1(4H)-yl)propan-1-one], 300 to 1000 nM.
